Laboratory results: patent US11799117B2, “Flow batteries incorporating a nitroxide compound within an aqueous electrolyte solution” (LOCKHEED MARTIN ENERGY, LLC, priority 2016, dated 2023)

Assays:
Type in all cases: physicochemical
[1] = Aqueous solubility
From the text: (§1) First, it has a reduction potential of approximately 0.6 V versus a saturated calomel electrode, which is desirably higher than that of iron hexacyanide coordination compounds (increase of 0.25 V).

[2] = Electrochemical kinetics by cyclic voltammetry; settings: also in alkaline aqueous electrolyte solutions; substantially reversible = anodic/cathodic peak difference less than about 0.3 V
From the text: The high positive half-cell reduction potentials can provide significant advantages when incorporated in flow batteries, particularly in comparison to the commonly used iron hexacyanide coordination compounds. The high positive reduction potential can allow improved open circuit potential, voltage efficiency and current efficiency values to be realized. In addition, the improved solubility of many nitroxide compounds compared to iron hexacyanide coordination compounds allows improved energy density values to be realized.
The nitroxide compound defined by Structure 12 has the chemical name [2,2,6,6-tetramethyl-4-(sulfooxy)piperidin-1-yl]oxidanyl (also referred to herein as TEMPOSO). Without being bound by any theory or mechanism, it is believed that the sulfate (sulfooxy) group can stabilize the nitroxide group when the six-membered ring is in its “boat”, configuration. […] Under alkaline aqueous solutions, the deprotonated anionic form of Structure 12 can be stabilized after oxidation of the radical through lone pair donation from the sulfooxy group to the resulting nitrogen-centered cation.
as §1

[3] = Conductivity of aqueous solution; settings: 1 M aqueous solution, pH 11, absence of other electrolytes
From the text: as §1

[4] = Reduction potential versus a saturated calomel electrode
From the text: as §1

Substance: [2,2,6,6-tetramethyl-4-(sulfooxy)piperidin-1-yl]oxidanyl [TEMPOSO]
- aqueous solubility [1]: ≥ 1.8 M
- electrochemical kinetics [2]: substantially reversible
- conductivity [3]: about 50 mS/cm
- increase of reduction potential over iron hexacyanide coordination compounds [4]: 0.25 V
- reduction potential [4]: approximately 0.6 V
